From patent US7507568B2, “Three dimensional coordinates of HPTPbeta” (The Proctor & Gamble Company, priority 2002, dated 2009)

Target: T1, PTPbeta catalytic domain [SEQ ID NO: 7] (Homo sapiens, UniProt P23467)
T1 construct: made in house; host or cells: Escherichia coli BL21-RIL
Assay: Inhibition of HPTPbeta (relative inhibitor potency, stated in words)
Assay type: biochemical
Details: qualitative comparison; no numerical values or assay method printed

T1 sequence (P23467 with tags, fused parts or gaps): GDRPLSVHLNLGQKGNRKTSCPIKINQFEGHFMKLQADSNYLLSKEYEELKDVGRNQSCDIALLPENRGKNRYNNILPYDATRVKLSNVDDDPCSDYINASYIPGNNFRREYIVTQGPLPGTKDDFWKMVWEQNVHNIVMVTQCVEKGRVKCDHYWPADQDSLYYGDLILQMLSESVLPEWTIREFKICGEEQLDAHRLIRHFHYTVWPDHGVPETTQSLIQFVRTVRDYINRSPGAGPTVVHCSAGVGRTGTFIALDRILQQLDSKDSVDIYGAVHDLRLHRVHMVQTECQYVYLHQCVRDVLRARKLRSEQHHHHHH

- inhibitor potency relative to Compound 1: more potent inhibitor than Compound 1
Compound: CNC(=O)[C@H](Cc1ccc(NS(=O)(=O)O)cc1)NC(=O)C(Cc1ccc(O)cc1)NC(=O)OC(C)(C)C (stereo in doubt) [Compound 2, {2-(4-Hydroxy-phenyl)-1-[1-methylcarbamoyl-2-(4-sulfoamino-phenyl)-ethylcarbamoyl]-ethyl}-carbamic acid tert-butyl ester]
